Results from US20200054671A1, “TREATMENT OF ANXIETY DISORDER AND AUGMENTATION OF ANTI-ANXIETY INTERVENTIONS BY ADMINISTRATION OF NOBLE GAS CONTAINING MIXTURES” (NOBILIS THERAPEUTICS, INC., priority 2016, published 2020).

Key:
[1] = test system: patients with panic disorder; assay: Hospital Anxiety and Depression Scale, anxiety subscale (HADS_T), open clinical trial of xenon inhalation; type: in vivo, human; conditions: for HADS-T, V6 − V1, mean paired difference: after 6 sessions vs baseline; for HADS_T total score: after 3 sessions (V3)
Experimental: (§1) This investigator-initiated study was performed under a prospective clinical trial protocol approved by the Institute of Mental Health and Addictology, which is accredited by the Ministry of Health of the Russian Federation to conduct clinical trials (#57689). Study conduct was in compliance with all ethical standards and good clinical practice. Ninety outpatients with a diagnosis of “panic disorder» (F41.0) according to ICD-10 were enrolled through the Institute of Mental Health and Addictology. Five patients dropped out of the study due to minor side effects, predominantly lightheadedness and headaches, and 4 patients dropped out of the study for unspecified reasons. As the intention to treat analysis was not utilized due to the open label design of the study, 81 patients with PD (49 women and 32 men), mean age was 35.2 years (range […]) were studied. Patients were randomized into 2 groups: with “pure” PD (group 1) and “comorbid” PD, when it was co-diagnosed with other mental illnesses (group 2). All patients with isolated PD (Group 1, n=42) received monotherapy with xenon at the aforementioned schedule, while the majority of patients (94.9%) with PD and comorbid conditions, which were predominantly depression (group 2, n=39), in addition to xenon administration continued treatment for comorbid psychiatric disorders, which mainly consisted of antidepressants (SSRIs and SNRIs). In these patients, the reason for xenon treatment was the increase in the frequency and severity of panic attacks despite ongoing treatment with stable pharmacotherapy of at least 3 to 6 months' duration.
(§2) Administration of xenon was performed through inhalation of xenon-oxygen mixtures that were escalated from 15%/85% to 30%/70% with titration increments of 5% per session. Each patient in the study underwent between 6 and 7 treatments with xenon-oxygen mixture. The first three sessions were carried out daily and from session 4 onward—every other day. The selected dosing regime and the composition of the gas mixtures were based on the historical evidence of safety of subanesthetic use of xenon in imaging.
(§3) Medical grade xenon (“medksenon»®, 99.9999%, manufacturer: Atommedcenter, Moscow, Russia) and medical grade oxygen in separate containers were admixed. Mixing and administration of gases in preset concentration and volume was accomplished with the use of the medical device MAGi-AMTS1, which enables the operator to adjust the concentration of xenon in the gas mixture, and which contains the electronic flow meter with a software module that allows for such adjustments. Administration of xenon-oxygen mixture to the patient was carried out via a face mask. Patients were asked to slowly inhale, holding breath for 5 to 10 seconds; exhale into the loop and after 35-40 seconds exhale outside the contour and breath in the new portion of gas mixture. Xenon inhalation lasted from 2.5 to 4 minutes, and the xenon consumption was capped at 3.0 liters per procedure. The patients were assessed subjectively by the provider, while the vital signs (pulse, blood pressure, oxygen saturation) were continuously monitored.
Patients were evaluated after each xenon inhalation and at 30 and 180 days after completion of treatment. To this end, we employed clinical psychopathological and clinical catamnestic methods, and psychometric scales that are widely used internationally to assess the treatment of mental disorders. […]

[2] = test system: patients with panic disorder; assay: Clinical Global Impression Scale, severity of the disease subscale (CGI-S); type: in vivo, human
Experimental: as §1, §2, §3
(§4) Patients were evaluated after each xenon inhalation and at 30 and 180 days after completion of treatment. To this end, we employed clinical psychopathological and clinical catamnestic methods, and psychometric scales that are widely used internationally to assess the treatment of mental disorders. Scale Assessment, Zung Self-Rating Anxiety Scale (SAS) was performed prior to starting therapy (V1), and at 1 and 6 months after treatment. According to this scale, SAS index of less than 45 points corresponds to the normal value, 45-59—to mild-to-moderate degree of anxiety, 60-74—to high degree of anxiety, more than 75—to an extremely high-level of anxiety. […]

[3] = test system: patients with panic disorder; assay: Zung Self-Rating Anxiety Scale (SAS); type: in vivo, human
Experimental: as §1, §2, §3, §4

[4] = test system: patients with panic disorder; assay: Hospital Anxiety and Depression Scale, depression subscale (HADS_D); type: in vivo, human; conditions: for HADS_D: patients with “clinically severe depression”: end of the active phase of treatment
Experimental: as §1, §2
(§5) Medical grade xenon (“medksenon»®, 99.9999%, manufacturer: Atommedcenter, Moscow, Russia) and medical grade oxygen in separate containers were admixed. […] The patients were assessed subjectively by the provider, while the vital signs (pulse, blood pressure, oxygen saturation) were continuously monitored.
Patients were evaluated after each xenon inhalation and at 30 and 180 days after completion of treatment. […]

[5] = test system: patients with panic disorder; assay: Tolerability of xenon therapy in the clinical trial; type: in vivo, human; conditions: mainly headache and dizziness
Experimental: This investigator-initiated study was performed under a prospective clinical trial protocol approved by the Institute of Mental Health and Addictology, which is accredited by the Ministry of Health of the Russian Federation to conduct clinical trials (#57689). Study conduct was in compliance with all ethical standards and good clinical practice. Ninety outpatients with a diagnosis of “panic disorder» (F41.0) according to ICD-10 were enrolled through the Institute of Mental Health and Addictology. Five patients dropped out of the study due to minor side effects, predominantly lightheadedness and headaches, and 4 patients dropped out of the study for unspecified reasons. As the intention to treat analysis was not utilized due to the open label design of the study, 81 patients with PD (49 women and 32 men), mean age was 35.2 years (range […]) were studied. Patients were randomized into 2 groups: with “pure” PD (group 1) and “comorbid” PD, when it was co-diagnosed with other mental illnesses (group 2). […]
as §5

NMDA receptor = NMDA receptor (Homo sapiens, UniProt Q05586); conditions: glycine site of the NMDA receptor; cited from earlier work
[6] = «Pure PD» (n = 42), total given 39

## [Xe] [xenon]
[1]; Group 1 («pure» PD, n=42, xenon monotherapy)
  HADS-T, V6 − V1, mean paired difference: −11.214
[1]; Group 1
  HADS_T total score: 13.3
[1]; Group 2 («comorbid» PD, n=39)
  HADS-T, V6 − V1, mean paired difference: −11.436
[1]; Group 2
  HADS_T total score: 13.3
[1]; both groups, end of treatment (V6)
  HADS_T overall score category: norm
[2]; Comorbid PD (n = 39), total 42
  CGI-S, V2: Moderately expressed disease, share of patients: 2.4%
  CGI-S, V2: Serious disease, share of patients: 4.8%
  CGI-S, V2: Significantly expressed disease, share of patients: 92.9%
  CGI-S, V3: Significantly expressed disease, share of patients: 88.1%
  CGI-S, V4: Moderately expressed disease, share of patients: 52.4%
  CGI-S, V4: Significantly expressed disease, share of patients: .0%
  CGI-S, V4: Weakly expressed disease, share of patients: 47.6%
  CGI-S, V5: Borderline state, share of patients: 14.3%
  CGI-S, V5: Moderately expressed disease, share of patients: .0%
  CGI-S, V5: Significantly expressed disease, share of patients: .0%
  CGI-S, V5: Weakly expressed disease, share of patients: 85.7%
  CGI-S, V6: Normal state, share of patients: 11.9%
  CGI-S, V6: Weakly expressed disease, share of patients: .0%
[2]; Comorbid PD (n = 39), total 42, after the third procedure
  CGI-S, V3: Moderately expressed disease, share of patients: 11.9%
[2]; Comorbid PD (n = 39), total 42, upon completion of xenon treatments
  CGI-S, V6: Borderline state, share of patients: 88.1%
[2]; Total (n = 81)
  CGI-S, V2: Moderately expressed disease, share of patients: 24.7%
  CGI-S, V2: Serious disease, share of patients: 2.5%
  CGI-S, V2: Significantly expressed disease, share of patients: 72.8%
  CGI-S, V3: Moderately expressed disease, share of patients: 29.6%
  CGI-S, V3: Significantly expressed disease, share of patients: 70.4%
  CGI-S, V4: Moderately expressed disease, share of patients: 51.9%
  CGI-S, V4: Significantly expressed disease, share of patients: 23.5%
  CGI-S, V4: Weakly expressed disease, share of patients: 24.7%
  CGI-S, V5: Borderline state, share of patients: 7.4%
  CGI-S, V5: Moderately expressed disease, share of patients: 45.7%
  CGI-S, V5: Significantly expressed disease, share of patients: 1.2%
  CGI-S, V5: Weakly expressed disease, share of patients: 45.7%
  CGI-S, V6: Borderline state, share of patients: 85.2%
  CGI-S, V6: Normal state, share of patients: 6.2%
  CGI-S, V6: Weakly expressed disease, share of patients: 8.6%
[2]; [6]
  CGI-S, V2: Moderately expressed disease, share of patients: 48.7%
  CGI-S, V2: Serious disease, share of patients: .0%
  CGI-S, V2: Significantly expressed disease, share of patients: 51.3%
  CGI-S, V3: Significantly expressed disease, share of patients: 51.3%
  CGI-S, V4: Moderately expressed disease, share of patients: 51.3%
  CGI-S, V4: Significantly expressed disease, share of patients: 48.7%
  CGI-S, V4: Weakly expressed disease, share of patients: .0%
  CGI-S, V5: Borderline state, share of patients: .0%
  CGI-S, V5: Moderately expressed disease, share of patients: 94.9%
  CGI-S, V5: Significantly expressed disease, share of patients: 2.6%
  CGI-S, V5: Weakly expressed disease, share of patients: 2.6%
  CGI-S, V6: Normal state, share of patients: .0%
  CGI-S, V6: Weakly expressed disease, share of patients: 17.9%
[2]; «Pure PD» (n = 42), total given 39, after the third procedure
  CGI-S, V3: Moderately expressed disease, share of patients: 48.7%
[2]; «Pure PD» (n = 42), total given 39, upon completion of xenon treatments
  CGI-S, V6: Borderline state, share of patients: 82.1%
[3]; Group 1 (n=42)
  Zung SAS after 1 month − V1, mean paired difference: −36.131
  Zung SAS after 6 months − V1, mean paired difference: −38.214
[3]; Group 1, one month after treatment
  SAS total score: 36.5 points
[3]; Group 1, study follow up (6 months)
  SAS total score: 34.5
[3]; Group 2 (n=39)
  Zung SAS after 1 month − V1, mean paired difference: −17.308
  Zung SAS after 6 months − V1, mean paired difference: −16.154
[3]; Group 2, one month after treatment
  SAS total score: 46.8 points
[3]; Group 2, study follow up (6 months)
  SAS total score: 47.9
[4]; group 1, after 3 xenon treatments
  HADS_D: patients in whom “clinically severe depression” was absent: 90.5%
[4]; group 1
  HADS_D: patients with “clinically severe depression”: 2.4%
[4]; group 2, after 3 xenon treatments
  HADS_D: patients in whom “clinically severe depression” was present: 82.1%
[4]; group 2
  HADS_D: patients with “clinically severe depression”: 46.2%
[5]; 5 patients
  patients dropping out from the study due to side effects: 5.8%
[5]; side effects, were rare
  tolerability of xenon therapy: generally well tolerated
NMDA receptor
  mechanism of inhibition of NMDA receptor activity: competitive inhibition of the co-agonist glycine
